Assay results taken from patent publication US20070128217A1 (priority 2003, published 2007).

Legend:
[1] = system: antibodies in sera from SARS patients (sera 1a, 1b, 2, 6, 37, 62, London, SARS-yellow, SARS-green); format: binding, human; design: Binding of serum 6 to linear peptides of protein X1 of SARS-CoV Urbani / Binding of serum 37 to linear peptides of protein X1 of SARS-CoV Urbani / Binding of serum 6 to looped/cyclic peptide (PEPSCAN-ELISA) / Binding of serum 37 to looped/cyclic peptide (PEPSCAN-ELISA) / Binding of serum 37 to looped/cyclic peptides of protein X1 of SARS-CoV Urbani / Binding of serum 6 to linear peptides of protein X2 / Binding of serum 37 to linear peptides of protein X2 / Binding of serum 37 to looped/cyclic peptides of protein X2 of SARS-CoV Urbani / Binding of serum 6 to linear peptides of protein M of SARS-CoV Urbani / Binding of serum 37 to linear peptides of protein M of SARS-CoV Urbani / Binding of serum 6 to looped/cyclic peptides of protein M of SARS-CoV Urbani / Binding of serum 37 to looped/cyclic peptides of protein M of SARS-CoV Urbani / Binding of serum 6 to linear peptides of protein X3 of SARS-CoV Urbani / Binding of serum 37 to linear peptides of protein X3 of SARS-CoV Urbani / Binding of serum 37 to looped/cyclic peptides of protein X3 of SARS-CoV Urbani / Binding of serum 6 to linear peptides of protein X4 of SARS-CoV Urbani / Binding of serum 37 to linear peptides of protein X4 of SARS-CoV Urbani / Binding of serum 37 to looped/cyclic peptides of protein X4 of SARS-CoV Urbani / Binding of serum 6 to linear peptides of protein X5 of SARS-CoV Urbani / Binding of serum 37 to linear peptides of protein X5 of SARS-CoV Urbani / Binding of serum 37 to looped/cyclic peptides of protein X5 of SARS-CoV Urbani / Binding of serum 6 to linear peptides of protein N of SARS-CoV Urbani / Binding of serum 37 to linear peptides of protein N of SARS-CoV Urbani / Binding of serum 6 to linear peptide (PEPSCAN-ELISA) / Binding of serum 1a to looped/cyclic peptides of protein N of SARS-CoV Urbani / Binding of serum 1b to looped/cyclic peptides of protein N of SARS-CoV Urbani / Binding of serum 2 to looped/cyclic peptides of protein N of SARS-CoV Urbani / Binding of serum 6 to looped/cyclic peptides of protein N of SARS-CoV Urbani / Binding of serum 37 to looped/cyclic peptides of protein N of SARS-CoV Urbani / Binding of serum 62 to looped/cyclic peptides of protein N of SARS-CoV Urbani / Binding of serum London to looped/cyclic peptides of protein N of SARS-CoV Urbani / Binding of serum SARS-green to looped/cyclic peptides of protein N of SARS-CoV Urbani: unit not given here
[2] = system: control sera (pooled serum of ten healthy LUMC hospital workers; commercial negative donor pooled serum from the Dutch bloodbank); format: binding, human; design: Binding of Control serum LUMC to linear peptides / Binding of Control serum Blood-bank to linear peptides / Binding of Control serum LUMC to looped peptides / Binding of Control Serum Blood-Bank to Looped peptides / Binding of Control serum LUMC to linear peptides of the protein M of SARS-CoV Urbani / Binding of Control serum Blood-bank to linear peptides of the protein M of SARS-CoV Urbani / Binding of Control serum LUMC to looped peptides of the protein M of SARS-CoV Urbani / Binding of Control Serum Blood-Bank to Looped peptides of the protein M of SARS-CoV Urbani: unit not given here
[3] = system: rabbit serum obtained by immunizing a rabbit with the SARS-CoV strain Frankfurt 1; format: binding; design: Binding of a rabbit serum to linear peptides / Binding of a rabbit serum to looped peptides / Rabbit serum linear peptides / Rabbit serum looped peptides / Binding of a rabbit serum to linear peptides of protein N of SARS-CoV Urbani (Rabbit serum linear peptides) / Binding of a rabbit serum to looped/cyclic peptides of protein N of SARS-CoV Urbani (Rabbit serum looped peptides): unit not given here

GTDSGFAAYNRYRIG
Binding of serum 1a to linear peptides of protein M of SARS-CoV Urbani [1]: 0.6 | Binding of serum 1a to looped/cyclic peptides of protein M of SARS-CoV Urbani [1]: 0.8 | Binding of serum 1b to linear peptides of protein M of SARS-CoV Urbani [1]: 0.4 | Binding of serum 1b to looped/cyclic peptides of protein M of SARS-CoV Urbani [1]: 0.5 | Binding of serum 2 to linear peptides of protein M of SARS-CoV Urbani [1]: 0.4 | Binding of serum 2 to looped/cyclic peptides of protein M of SARS-CoV Urbani [1]: 0.6 | Binding of serum 6 to linear peptides of protein M of SARS-CoV Urbani [1]: 0.7 | Binding of serum 6 to looped/cyclic peptides of protein M of SARS-CoV Urbani [1]: 0.8 | Binding of serum 37 to linear peptides of protein M of SARS-CoV Urbani [1]: 0.6 | Binding of serum 37 to looped/cyclic peptides of protein M of SARS-CoV Urbani [1]: 0.7 | Binding of serum 62 to linear peptides of protein M of SARS-CoV Urbani [1]: 0.5 | Binding of serum 62 to looped/cyclic peptides of protein M of SARS-CoV Urbani [1]: 0.6 | Binding of serum London to linear peptides of protein M of SARS-CoV Urbani [1]: 0.3 | Binding of serum London to looped/cyclic peptides of protein M of SARS-CoV Urbani [1]: 0.3 | Binding of serum SARS-green to linear peptides of protein M of SARS-CoV Urbani [1]: 0.4 | Binding of serum SARS-green to looped/cyclic peptides of protein M of SARS-CoV Urbani [1]: 0.4 | Binding of serum SARS-yellow to linear peptides of protein M of SARS-CoV Urbani [1]: 0.2 | Binding of serum SARS-yellow to looped/cyclic peptides of protein M of SARS-CoV Urbani [1]: 0.9 | Binding of Control Serum Blood-Bank to Looped peptides of the protein M of SARS-CoV Urbani [2]: 0.6 | Binding of Control serum Blood-bank to linear peptides of the protein M of SARS-CoV Urbani [2]: 0.7 | Binding of Control serum LUMC to linear peptides of the protein M of SARS-CoV Urbani [2]: 0.5 | Binding of Control serum LUMC to looped peptides of the protein M of SARS-CoV Urbani [2]: 0.7 | Rabbit serum linear peptides [3]: 0.2 | Rabbit serum looped peptides [3]: 0.4

AALVFLILCFTIKRK
Binding of serum 1a to linear peptides of protein X4 of SARS-CoV Urbani [1]: 0.7 | Binding of serum 1a to looped/cyclic peptides of protein X4 of SARS-CoV Urbani [1]: 0.8 | Binding of serum 1b to linear peptides of protein X4 of SARS-CoV Urbani [1]: 0.8 | Binding of serum 1b to looped/cyclic peptides of protein X4 of SARS-CoV Urbani [1]: 0.5 | Binding of serum 2 to linear peptides of protein X4 of SARS-CoV Urbani [1]: 0.6 | Binding of serum 2 to looped/cyclic peptides of protein X4 of SARS-CoV Urbani [1]: 0.7 | Binding of serum 6 to linear peptides of protein X4 of SARS-CoV Urbani [1]: 0.8 | Binding of serum 6 to looped/cyclic peptides of protein X4 of SARS-CoV Urbani [1]: 0.7 | Binding of serum 37 to linear peptides of protein X4 of SARS-CoV Urbani [1]: 0.8 | Binding of serum 37 to looped/cyclic peptides of protein X4 of SARS-CoV Urbani [1]: 0.6 | Binding of serum 62 to linear peptides of protein X4 of SARS-CoV Urbani [1]: 0.8 | Binding of serum 62 to looped/cyclic peptides of protein X4 of SARS-CoV Urbani [1]: 0.7 | Binding of serum London to linear peptides of protein X4 of SARS-CoV Urbani [1]: 0.8 | Binding of serum London to looped/cyclic peptides of protein X4 of SARS-CoV Urbani [1]: 0.5 | Binding of serum SARS-green to linear peptides of protein X4 of SARS-CoV Urbani [1]: 0.7 | Binding of serum SARS-green to looped/cyclic peptides of protein X4 of SARS-CoV Urbani [1]: 0.4 | Binding of serum SARS-yellow to linear peptides of protein X4 of SARS-CoV Urbani [1]: 0.7 | Binding of serum SARS-yellow to looped/cyclic peptides of protein X4 of SARS-CoV Urbani [1]: 0.5 | Binding of Control Serum Blood-Bank to Looped peptides [2]: 0.8 | Binding of Control serum Blood-bank to linear peptides [2]: 0.9 | Binding of Control serum LUMC to linear peptides [2]: 0.7 | Binding of Control serum LUMC to looped peptides [2]: 0.6 | Rabbit serum linear peptides [3]: 0.8 | Rabbit serum looped peptides [3]: 0.6

LCALGKVLPFHRWHT
Binding of serum 1a to linear peptides of protein X5 of SARS-CoV Urbani [1]: 0.7 | Binding of serum 1a to looped/cyclic peptides of protein X5 of SARS-CoV Urbani [1]: 0.4 | Binding of serum 1b to linear peptides of protein X5 of SARS-CoV Urbani [1]: 0.6 | Binding of serum 1b to looped/cyclic peptides of protein X5 of SARS-CoV Urbani [1]: 0.2 | Binding of serum 2 to linear peptides of protein X5 of SARS-CoV Urbani [1]: 0.7 | Binding of serum 2 to looped/cyclic peptides of protein X5 of SARS-CoV Urbani [1]: 0.5 | Binding of serum 6 to linear peptides of protein X5 of SARS-CoV Urbani [1]: 0.5 | Binding of serum 6 to looped/cyclic peptides of protein X5 of SARS-CoV Urbani [1]: 0.4 | Binding of serum 37 to linear peptides of protein X5 of SARS-CoV Urbani [1]: 0.7 | Binding of serum 37 to looped/cyclic peptides of protein X5 of SARS-CoV Urbani [1]: 0.4 | Binding of serum 62 to linear peptides of protein X5 of SARS-CoV Urbani [1]: 0.8 | Binding of serum 62 to looped/cyclic peptides of protein X5 of SARS-CoV Urbani [1]: 0.6 | Binding of serum London to linear peptides of protein X5 of SARS-CoV Urbani [1]: 0.9 | Binding of serum London to looped/cyclic peptides of protein X5 of SARS-CoV Urbani [1]: 0.2 | Binding of serum SARS-green to linear peptides of protein X5 of SARS-CoV Urbani [1]: 0.6 | Binding of serum SARS-green to looped/cyclic peptides of protein X5 of SARS-CoV Urbani [1]: 0.4 | Binding of serum SARS-yellow to linear peptides of protein X5 of SARS-CoV Urbani [1]: 0.2 | Binding of serum SARS-yellow to looped/cyclic peptides of protein X5 of SARS-CoV Urbani [1]: 0.4 | Binding of Control Serum Blood-Bank to Looped peptides [2]: 0.4 | Binding of Control serum Blood-bank to linear peptides [2]: 0.7 | Binding of Control serum LUMC to linear peptides [2]: 0.5 | Binding of Control serum LUMC to looped peptides [2]: 0.6 | Rabbit serum linear peptides [3]: 0.7 | Rabbit serum looped peptides [3]: 0.7
